Assay results from PubChem BioAssay (NCI).
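Growth conditions: 96-well plates. Treatment: test compound, 48 hours, 5 concentrations. Analysis: linear interpolation between bracketing concentrations; unreached endpoints set to highest concentration. The concentration for 50% growth inhibition is given as GI50. TGI denotes the concentration required for complete inhibition of growth.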

Key:
Assay in all cases: NCI anticancer screen, dose series, 48 h
[1] = test system: RPMI-8226 leukemia
[2] = test system: SF-268 CNS
[3] = test system: OVCAR-4 ovarian
[4] = test system: CCRF-CEM leukemia
[5] = test system: MOLT-4 leukemia
[6] = test system: HCT-15 colon
[7] = test system: NCI-H460 lung
[8] = test system: HL-60(TB) leukemia
[9] = test system: SN12C renal
[10] = test system: ACHN renal
[11] = test system: T-47D breast
[12] = test system: SF-539 CNS
[13] = test system: K-562 leukemia
[14] = test system: SK-MEL-5 melanoma
[15] = test system: SF-295 CNS
[16] = test system: EKVX NSCLC
[17] = test system: M14 melanoma
[18] = test system: SK-MEL-2 melanoma
[19] = test system: SR leukemia
[20] = test system: SW-620 colon
[21] = test system: HOP-92 NSCLC
[22] = test system: UO-31 renal
[23] = test system: DU-145 prostate
[24] = test system: UACC-62 melanoma
[25] = test system: NCI/ADR-RES ovarian
[26] = test system: CAKI-1 renal
[27] = test system: A498 renal
[28] = test system: NCI-H522 lung
[29] = test system: HOP-62 NSCLC
[30] = test system: OVCAR-8 ovarian
[31] = test system: NCI-H226 lung
[32] = test system: KM12 colon
[33] = test system: COLO 205 colon
[34] = test system: 786-0 renal
[35] = test system: OVCAR-5 ovarian
[36] = test system: UACC-257 melanoma
[37] = test system: SK-OV-3 ovarian
[38] = test system: HCC-2998 colon
[39] = test system: MCF7 breast
[40] = test system: SK-MEL-28 melanoma
[41] = test system: BT-549 breast
[42] = test system: SNB-19 CNS
[43] = test system: SNB-75 CNS
[44] = test system: PC-3 prostate
[45] = test system: LOX IMVI melanoma
[46] = test system: U251 CNS
[47] = test system: MALME-3M melanoma
[48] = test system: MDA-MB-231 breast
[49] = test system: RXF 393 renal
[50] = test system: OVCAR-3 ovarian
[51] = test system: A549 NSCLC
[52] = test system: HCT-116 colon
[53] = test system: IGROV1 ovarian
[54] = test system: MDA-MB-435
[55] = test system: HT29 colon
[56] = test system: TK-10 renal

**Q.** `C/C(=N\NC(=S)Nc1ccc(Br)cc1)c1cc2ccccc2oc1=O` was tested. Which GI50 [1] did it give?
**A.** The GI50 was 1.21 µM.

**Q.** What about the TGI [1] of the same molecule?
**A.** The TGI was 11.2 µM.

**Q.** What about the GI50 [2] of the same molecule?
**A.** The GI50 was 0.883 µM.

**Q.** And the TGI [2]?
**A.** Its TGI is 17.2 µM.

**Q.** And the GI50 [3]?
**A.** Its GI50 is 2.24 µM.

**Q.** What about the TGI [3] of the same molecule?
**A.** The TGI was 49.7 µM.

**Q.** And the GI50 [4]?
**A.** The GI50 was 0.464 µM.

**Q.** And the TGI [4]?
**A.** Its TGI is 9.51 µM.

**Q.** What about the GI50 [5] of the same molecule?
**A.** The GI50 was 0.46 µM.

**Q.** And the TGI [5]?
**A.** The TGI was 12 µM.

**Q.** And the GI50 [6]?
**A.** Its GI50 is 0.404 µM.

**Q.** And the TGI [6]?
**A.** The TGI was 13.5 µM.

**Q.** What about the GI50 [7] of the same molecule?
**A.** Its GI50 is 0.462 µM.

**Q.** What about the TGI [7] of the same molecule?
**A.** The TGI was 4.58 µM.

**Q.** And the GI50 [8]?
**A.** The GI50 was 0.44 µM.

**Q.** And the TGI [8]?
**A.** Its TGI is 3.08 µM.

**Q.** What about the GI50 [9] of the same molecule?
**A.** Its GI50 is 1.59 µM.

**Q.** And the TGI [9]?
**A.** Its TGI is 15.2 µM.

**Q.** What about the GI50 [10] of the same molecule?
**A.** The GI50 was 0.76 µM.

**Q.** What about the TGI [10] of the same molecule?
**A.** The TGI was 17.1 µM.

**Q.** What about the GI50 [11] of the same molecule?
**A.** The GI50 was 0.952 µM.

**Q.** And the TGI [11]?
**A.** Its TGI is 11.9 µM.

**Q.** What about the GI50 [12] of the same molecule?
**A.** The GI50 was 1.33 µM.

**Q.** And the TGI [12]?
**A.** The TGI was 10.5 µM.

**Q.** And the GI50 [13]?
**A.** The GI50 was 0.42 µM.

**Q.** And the TGI [13]?
**A.** Its TGI is 21.1 µM.

**Q.** What about the GI50 [14] of the same molecule?
**A.** The GI50 was 1.19 µM.

**Q.** What about the TGI [14] of the same molecule?
**A.** The TGI was 3.5 µM.

**Q.** And the GI50 [15]?
**A.** Its GI50 is 2.49 µM.

**Q.** What about the TGI [15] of the same molecule?
**A.** Its TGI is 7.18 µM.

**Q.** And the GI50 [16]?
**A.** Its GI50 is 2.85 µM.

**Q.** And the TGI [16]?
**A.** The TGI was 30.8 µM.

**Q.** What about the GI50 [17] of the same molecule?
**A.** Its GI50 is 0.604 µM.

**Q.** What about the TGI [17] of the same molecule?
**A.** Its TGI is 2.22 µM.

**Q.** And the GI50 [18]?
**A.** The GI50 was 0.789 µM.

**Q.** And the TGI [18]?
**A.** Its TGI is 8.34 µM.

**Q.** And the GI50 [19]?
**A.** Its GI50 is 0.314 µM.

**Q.** And the TGI [19]?
**A.** The TGI was 2.33 µM.

**Q.** What about the GI50 [20] of the same molecule?
**A.** The GI50 was 0.892 µM.

**Q.** And the TGI [20]?
**A.** The TGI was 15.7 µM.

**Q.** And the GI50 [21]?
**A.** Its GI50 is 1.21 µM.

**Q.** What about the TGI [21] of the same molecule?
**A.** Its TGI is 18 µM.

**Q.** And the GI50 [22]?
**A.** Its GI50 is 0.587 µM.

**Q.** What about the TGI [22] of the same molecule?
**A.** The TGI was 10.4 µM.

**Q.** What about the GI50 [23] of the same molecule?
**A.** Its GI50 is 1.79 µM.

**Q.** And the TGI [23]?
**A.** The TGI was 25.8 µM.

**Q.** And the GI50 [24]?
**A.** The GI50 was 0.476 µM.

**Q.** And the TGI [24]?
**A.** The TGI was 3.71 µM.

**Q.** What about the GI50 [25] of the same molecule?
**A.** Its GI50 is 0.523 µM.

**Q.** And the TGI [25]?
**A.** Its TGI is 12.8 µM.

**Q.** And the GI50 [26]?
**A.** Its GI50 is 0.561 µM.

**Q.** What about the TGI [26] of the same molecule?
**A.** The TGI was 9.94 µM.

**Q.** And the GI50 [27]?
**A.** The GI50 was 14.4 µM.

**Q.** What about the TGI [27] of the same molecule?
**A.** The TGI was 31.4 µM.

**Q.** And the GI50 [28]?
**A.** The GI50 was 0.582 µM.

**Q.** What about the TGI [28] of the same molecule?
**A.** Its TGI is 4.68 µM.

**Q.** And the GI50 [29]?
**A.** Its GI50 is 0.841 µM.

**Q.** What about the TGI [29] of the same molecule?
**A.** The TGI was 12.6 µM.

**Q.** And the GI50 [30]?
**A.** The GI50 was 1.12 µM.

**Q.** What about the TGI [30] of the same molecule?
**A.** Its TGI is 11.1 µM.

**Q.** And the GI50 [31]?
**A.** Its GI50 is 1.28 µM.

**Q.** And the TGI [31]?
**A.** The TGI was 5.24 µM.

**Q.** What about the GI50 [32] of the same molecule?
**A.** The GI50 was 0.6 µM.

**Q.** And the TGI [32]?
**A.** Its TGI is 8.23 µM.

**Q.** What about the GI50 [33] of the same molecule?
**A.** Its GI50 is 3.34 µM.

**Q.** And the TGI [33]?
**A.** The TGI was 12.1 µM.

**Q.** What about the GI50 [34] of the same molecule?
**A.** The GI50 was 2.46 µM.

**Q.** And the TGI [34]?
**A.** The TGI was 13.5 µM.

**Q.** And the GI50 [35]?
**A.** Its GI50 is 2.46 µM.

**Q.** And the TGI [35]?
**A.** The TGI was 14.2 µM.

**Q.** And the GI50 [36]?
**A.** Its GI50 is 2.24 µM.

**Q.** What about the TGI [36] of the same molecule?
**A.** The TGI was 8.56 µM.

**Q.** And the GI50 [37]?
**A.** The GI50 was 3.12 µM.

**Q.** And the TGI [37]?
**A.** The TGI was 11.6 µM.

**Q.** What about the GI50 [38] of the same molecule?
**A.** Its GI50 is 1.69 µM.

**Q.** What about the TGI [38] of the same molecule?
**A.** Its TGI is 5.52 µM.

**Q.** What about the GI50 [39] of the same molecule?
**A.** The GI50 was 0.87 µM.

**Q.** What about the TGI [39] of the same molecule?
**A.** The TGI was 10.9 µM.

**Q.** What about the GI50 [40] of the same molecule?
**A.** The GI50 was 0.872 µM.

**Q.** And the TGI [40]?
**A.** Its TGI is 13.1 µM.

**Q.** And the GI50 [41]?
**A.** Its GI50 is 1.26 µM.

**Q.** What about the TGI [41] of the same molecule?
**A.** Its TGI is 6.36 µM.

**Q.** What about the GI50 [42] of the same molecule?
**A.** The GI50 was 1.41 µM.

**Q.** What about the TGI [42] of the same molecule?
**A.** The TGI was 24.6 µM.

**Q.** What about the GI50 [43] of the same molecule?
**A.** Its GI50 is 0.615 µM.

**Q.** What about the TGI [43] of the same molecule?
**A.** Its TGI is 4.27 µM.

**Q.** What about the GI50 [44] of the same molecule?
**A.** Its GI50 is 0.833 µM.

**Q.** And the TGI [44]?
**A.** The TGI was 14 µM.

**Q.** What about the GI50 [45] of the same molecule?
**A.** Its GI50 is 0.53 µM.

**Q.** And the TGI [45]?
**A.** Its TGI is 5.34 µM.

**Q.** And the GI50 [46]?
**A.** The GI50 was 0.64 µM.

**Q.** What about the TGI [46] of the same molecule?
**A.** The TGI was 12 µM.

**Q.** What about the GI50 [47] of the same molecule?
**A.** The GI50 was 1.12 µM.

**Q.** And the TGI [47]?
**A.** The TGI was 7 µM.

**Q.** And the GI50 [48]?
**A.** The GI50 was 0.956 µM.

**Q.** And the TGI [48]?
**A.** Its TGI is 25.2 µM.

**Q.** What about the GI50 [49] of the same molecule?
**A.** The GI50 was 1.45 µM.

**Q.** And the TGI [49]?
**A.** The TGI was 4 µM.

**Q.** And the GI50 [50]?
**A.** The GI50 was 0.427 µM.

**Q.** What about the TGI [50] of the same molecule?
**A.** Its TGI is 13 µM.

**Q.** And the GI50 [51]?
**A.** The GI50 was 2.39 µM.

**Q.** And the TGI [51]?
**A.** The TGI was 13.4 µM.

**Q.** What about the GI50 [52] of the same molecule?
**A.** Its GI50 is 0.579 µM.

**Q.** What about the TGI [52] of the same molecule?
**A.** The TGI was 12.5 µM.

**Q.** And the GI50 [53]?
**A.** Its GI50 is 0.84 µM.

**Q.** And the TGI [53]?
**A.** Its TGI is 15.3 µM.

**Q.** And the GI50 [54]?
**A.** Its GI50 is 0.353 µM.

**Q.** And the TGI [54]?
**A.** The TGI was 11.9 µM.

**Q.** And the GI50 [55]?
**A.** Its GI50 is 3.72 µM.

**Q.** What about the TGI [55] of the same molecule?
**A.** The TGI was 14.4 µM.

**Q.** What about the GI50 [56] of the same molecule?
**A.** Its GI50 is 4.65 µM.

**Q.** And the TGI [56]?
**A.** Its TGI is 28.3 µM.
